Assay results: patent US20260035365A1, “1H-PYRROLO[3,2-B]PYRIDINE DERIVATIVES AS IRREVERSIBLE INHIBITORS OF MUTANT EGFR FOR THE TREATMENT OF CANCER” (Bayer Aktiengesellschaft, priority 2022, published 2026)

Columns and labels:
BA/F3 (insSVD) cells = experiment: Ba/F3 cell survival assay (Cell Titer-Glo), EGFR-insSVD; type: cell-based; settings: without IL-3, with EGF
Method: 293T cells from ATCC were transfected with pBABEpuro expression constructs for WT EGFR or EGFR-insSVD, or EGFR-insSVD T790M, and pCL-Eco packaging vector using Fugene-6 transfection reagent from Promega. Plates were incubated at 37° C. for 48 h. Retrovirus was harvested by filtering the media supernatant through a 0.45 μm filter.
Ba/F3 cells purchased from DSMZ were grown in RPMI+10% FBS+10 ng/mL IL-3 and infected with filtered retroviral supernatant at a 1:2 dilution. Polybrene was added to a concentration of 8 μg/mL, plates were spun for 90 min, and incubated for 16 h at 37° C. 2 μg/mL puromycin was added to the infected cells 24 h after infection and cells were continually grown in the presence of puromycin and 10 ng/mL IL-3. Following stably expressing Ba/F3 cell lines were generated: Ba/F3-EGFR-WT, Ba/F3-EGFR-insSVD, Ba/F3-EGFR-insSVD T790M, (Ba/F3-vector-control).
For cell survival assays, Ba/F3 cells were grown to a density of 1-2 million cells per mL, spun down and resuspended in media without IL-3, and replated at a concentration of 200,000-500,000 cells per mL. The cells ectopically expressing WT EGFR, EGFR-insSVD, or EGFR-insSVD T790M were plated with 10 ng/mL Millipore Culture grade EGF. The cells ectopically expressing pBABEpuro empty vector were plated with 10 ng/mL IL-3.
2 days later, cells were plated in 50 μL in a 384 well plate at a concentration of 4000 cells per well for cells assayed in the absence of IL-3 and 2000 cells per well for cells assayed in the presence of IL-3. 100 nL of compound was added to each well using a 100 nL pin head, and plates were incubated at 37° C. for 48 h.
Cell viability was measured by adding 20 μL of Cell Titer-Glo Luminescent Cell Viability Reagent diluted 1:3 in PBS. Plates were sealed with Perkin Elmer Top-Seal, inverted several times to mix, and immediately centrifuged at 1000 rpm for 2 min. Plates were incubated in low light conditions for 8-10 min and luminescence was measured.

[1] = biological target: mutEGFR (D770_N771insSVD) (Homo sapiens, UniProt P00533, INS767SVD); experiment: Exon20-mutant-EGFR (D770_N771insSVD) TR-FRET kinase assay; type: biochemical; settings: 2 mM ATP, 15 min preincubation
Text: Inhibitory activity of compounds of the present invention against an Epidermal Growth Factor Receptor (EGFR) with an insertion of the amino acids sequence SVD between D770 and N771 (SEQ ID No. 5) was quantified employing the TR-FRET based kinase activity assay as described in the following paragraphs.
A recombinant fusion protein of N-terminal Glutathion-S-Transferase (GST) and a fragment of human EGFR variant (amino acids R669 to A1210 with insertion of the amino acids sequence SVD between D770 and N771 (SEQ ID No. 5) (“EGFR ins SVD”), expressed in Sf9 insect cells and purified via affinity chromatography using Glutathion Sepharose as described above, was used as a kinase. As substrate for the kinase reaction the biotinylated peptide biotin-Ahx-AEEEEYFELVAKKK (C-terminus in amide form) (SEQ ID No. 6) was used which can be purchased e.g. form the company Biosynthan GmbH (Berlin-Buch, Germany).
For the assay 50 nl of a 100-fold concentrated solution of the test compound in DMSO was pipetted into either a black low volume 384 well microtiter plate or a black 1536 well microtiter plate (both Greiner Bio-One, Frickenhausen, Germany), 2 μl of a solution of EGFR in aqueous assay buffer [50 mM Hepes pH 7.0, 10 mM MgCl2, 1 mM dithiothreitol, 0.5 mM EGTA, 0.3 mM activated sodium ortho-vanadate, 0.005% (w/v) bovine serum albumin, 0.005% (v/v) Tween-20] were added and the mixture was incubated for 15 min at 22° C. to allow pre binding of the test compounds to the enzyme before the start of the kinase reaction. […] The concentration of EGFR was adjusted depending of the activity of the enzyme lot and was chosen appropriate to have the assay in the linear range, typical concentration was 15 pg/μl. The reaction was stopped by the addition of 3 μl of a solution of HTRF detection reagents (83.3 nM streptavidine-XL665 [Cisbio Bioassays, Codolet, France] and 1.67 nM PT66-Tb-Cryptate, a terbium-cryptate labelled anti-phospho-tyrosine antibody from Cisbio Bioassays [instead of the PT66 Tb cryptate PT66 Eu Chelate from Perkin Elmer can also be used]) in an aqueous EDTA-solution (133.3 mM EDTA, 0.2% (w/v) bovine serum albumin in 50 mM HEPES pH 7.5).
The resulting mixture was incubated 1 h at 22° C. to allow the binding of the biotinylated phosphorylated peptide to the streptavidine-XL665 and the PT66-Tb-Cryptate. Subsequently, the amount of phosphorylated substrate was evaluated by measurement of the resonance energy transfer from the PT66-Tb-Cryptate to the streptavidine-XL665. Therefore, the fluorescence emissions at 620 nm and 665 nm after excitation at 337 nm were measured in a HTRF reader, e.g. a Pherastar (BMG Labtechnologies, Offenburg, Germany) or a Viewlux (Perkin-Elmer). The ratio of the emissions at 665 nm and at […] was taken as the measure for the amount of phosphorylated substrate. The data were normalised (enzyme reaction without inhibitor=0% inhibition, all other assay components but no enzyme=100% inhibition).

[2] = biological target: mutEGFR (D770_N771insNPG, T790); experiment: mutEGFR (D770_N771insNPG, T790) kinase assay; type: biochemical, human
Sequence of mutEGFR (D770_N771insNPG, T790) (P00533 with tags, fused parts or gaps INS770NPG limits assumed): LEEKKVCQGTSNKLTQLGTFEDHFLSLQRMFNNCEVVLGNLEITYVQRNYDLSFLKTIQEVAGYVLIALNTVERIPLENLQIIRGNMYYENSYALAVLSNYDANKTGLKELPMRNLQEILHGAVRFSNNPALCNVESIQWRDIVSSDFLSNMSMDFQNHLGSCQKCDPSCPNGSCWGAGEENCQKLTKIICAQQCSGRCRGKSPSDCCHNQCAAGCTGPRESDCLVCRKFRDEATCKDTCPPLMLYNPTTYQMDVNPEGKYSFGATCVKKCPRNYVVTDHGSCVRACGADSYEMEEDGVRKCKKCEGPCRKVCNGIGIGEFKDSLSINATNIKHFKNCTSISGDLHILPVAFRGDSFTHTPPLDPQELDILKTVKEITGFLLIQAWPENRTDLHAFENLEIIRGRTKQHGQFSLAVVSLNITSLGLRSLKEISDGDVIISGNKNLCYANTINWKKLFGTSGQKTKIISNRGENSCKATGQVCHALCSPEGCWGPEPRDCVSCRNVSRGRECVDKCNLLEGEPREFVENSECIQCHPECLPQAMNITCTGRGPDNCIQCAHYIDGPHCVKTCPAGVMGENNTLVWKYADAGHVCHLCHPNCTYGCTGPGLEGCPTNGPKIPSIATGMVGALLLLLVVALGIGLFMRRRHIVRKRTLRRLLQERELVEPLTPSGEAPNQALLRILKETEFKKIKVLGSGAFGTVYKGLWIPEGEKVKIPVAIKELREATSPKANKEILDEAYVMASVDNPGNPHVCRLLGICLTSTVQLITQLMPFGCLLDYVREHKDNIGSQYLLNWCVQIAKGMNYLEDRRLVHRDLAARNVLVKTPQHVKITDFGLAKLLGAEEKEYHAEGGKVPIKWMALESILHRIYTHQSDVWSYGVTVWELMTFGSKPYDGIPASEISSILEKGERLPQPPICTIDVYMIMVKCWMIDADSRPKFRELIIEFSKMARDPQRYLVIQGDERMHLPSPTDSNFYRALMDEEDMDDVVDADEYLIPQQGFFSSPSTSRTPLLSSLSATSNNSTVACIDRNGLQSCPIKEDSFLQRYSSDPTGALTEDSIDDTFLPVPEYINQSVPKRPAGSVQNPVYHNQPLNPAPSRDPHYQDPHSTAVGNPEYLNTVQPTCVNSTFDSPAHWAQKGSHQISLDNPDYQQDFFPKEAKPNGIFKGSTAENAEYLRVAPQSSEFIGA

Sequence of mutEGFR (D770_N771insSVD) (P00533 with tags, fused parts or gaps INS767SVD limits assumed): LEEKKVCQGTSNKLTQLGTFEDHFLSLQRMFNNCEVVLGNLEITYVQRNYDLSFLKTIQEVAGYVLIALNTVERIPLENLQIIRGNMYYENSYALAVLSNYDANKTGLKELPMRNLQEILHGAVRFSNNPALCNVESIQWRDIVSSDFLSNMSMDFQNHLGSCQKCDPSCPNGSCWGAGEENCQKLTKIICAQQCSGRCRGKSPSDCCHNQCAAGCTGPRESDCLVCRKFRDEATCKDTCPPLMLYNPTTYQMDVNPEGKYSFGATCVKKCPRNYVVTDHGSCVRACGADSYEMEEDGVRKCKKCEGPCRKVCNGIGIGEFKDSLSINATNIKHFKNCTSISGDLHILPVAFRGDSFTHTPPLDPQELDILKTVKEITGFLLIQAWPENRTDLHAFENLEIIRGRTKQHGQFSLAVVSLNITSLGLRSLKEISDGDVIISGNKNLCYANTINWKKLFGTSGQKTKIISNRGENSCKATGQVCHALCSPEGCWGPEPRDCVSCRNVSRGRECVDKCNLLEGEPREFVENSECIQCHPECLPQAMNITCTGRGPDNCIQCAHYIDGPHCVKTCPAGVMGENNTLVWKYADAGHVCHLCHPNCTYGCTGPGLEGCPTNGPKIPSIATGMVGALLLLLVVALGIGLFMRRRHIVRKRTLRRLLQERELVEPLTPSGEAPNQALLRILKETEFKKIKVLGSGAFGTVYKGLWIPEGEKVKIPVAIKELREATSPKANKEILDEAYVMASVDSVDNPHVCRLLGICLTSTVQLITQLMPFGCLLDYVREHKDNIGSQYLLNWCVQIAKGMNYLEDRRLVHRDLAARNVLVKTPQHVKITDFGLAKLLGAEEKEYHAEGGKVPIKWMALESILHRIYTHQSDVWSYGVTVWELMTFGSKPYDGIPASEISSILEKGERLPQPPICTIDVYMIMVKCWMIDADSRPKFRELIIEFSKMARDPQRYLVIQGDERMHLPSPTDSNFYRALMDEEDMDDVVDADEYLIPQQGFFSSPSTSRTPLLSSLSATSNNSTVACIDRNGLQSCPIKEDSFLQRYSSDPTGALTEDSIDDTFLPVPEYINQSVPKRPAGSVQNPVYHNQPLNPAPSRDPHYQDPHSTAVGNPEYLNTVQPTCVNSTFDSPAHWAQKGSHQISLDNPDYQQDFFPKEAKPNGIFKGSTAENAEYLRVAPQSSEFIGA

Row | Compound | IC50 (BA/F3 (insSVD) cells; Mus musculus, BaF3, 48 h) [nM] | IC50 [1] [nM] | IC50 [2] [nM] | IC50 (BA/F3 (insSVD) cells; 48 h) [nM]
1 | C=CS(=O)(=O)N1CCC(Oc2cnccc2-c2[nH]c3cccnc3c2-c2cc(C)ccc2F)C1 (racemic) [Example 126, 2-(3-{[(3RS)-1-(ethenesulfonyl)pyrrolidin-3-yl]oxy}pyridin-4-yl)-3-(2-fluoro-5-methylphenyl)-1H-pyrrolo[3,2-b]pyridine] | 807 | 13.8 | 39.8 | –
2 | C=CC(=O)N1CCC(Oc2cnccc2-c2[nH]c3cccnc3c2-c2cc(Cl)ccc2F)C1 (racemic) [Example 127, 1-[(3RS)-3-({4-[3-(5-chloro-2-fluorophenyl)-1H-pyrrolo[3,2-b]pyridin-2-yl]pyridin-3-yl}oxy)pyrrolidin-1-yl]prop-2-en-1-one] | 691 | 25.4 | 97.6 | –
3 | C=CC(=O)N1CCC1(C)COc1cnccc1-c1[nH]c2cccnc2c1-c1ccccc1 (racemic) [Example 145, 1-[(2RS)-2-methyl-2-({[4-(3-phenyl-1H-pyrrolo[3,2-b]pyridin-2-yl)pyridin-3-yl]oxy}methyl)azetidin-1-yl]prop-2-en-1-one] | 9980 | 3510 | 17400 | –
4 | C=CS(=O)(=O)N1CCC1(C)COc1cnccc1-c1[nH]c2cccnc2c1-c1cccc(C(F)(F)F)c1 (racemic) [Example 148, 2-(3-{[(2RS)-1-(ethenesulfonyl)-2-methylazetidin-2-yl]methoxy}pyridin-4-yl)-3-[3-(trifluoromethyl)phenyl]-1H-pyrrolo[3,2-b]pyridine] | 2780 | 105 | 627 | –
5 | C=CC(=O)N1C[C@@H](N(C)CCN(C)C)C[C@H]1COc1cnccc1-c1[nH]c2cccnc2c1-c1ccccc1 (single isomer, unassigned) [Example 131] | – | 1.17 | 3.58 | 54.6
6 | C=CC(=O)N1C[C@@H](N(C)CCN(C)C)C[C@H]1COc1cnccc1-c1[nH]c2cccnc2c1-c1ccccc1 (single isomer, unassigned) [Example 132] | – | 9.32 | 27.5 | 184
7 | C=CC(=O)N1CC[C@H]1COc1cnccc1-c1[nH]c2cccnc2c1-c1ccccc1 (single isomer, unassigned) [Example 139] | 2520 | 120 | 492 | –
8 | C=CC(=O)N1CC[C@@H]1COc1cnccc1-c1[nH]c2cccnc2c1-c1ccccc1 (single isomer, unassigned) [Example 140] | 9.73 | 0.3 | 1.33 | –
9 | C=CS(=O)(=O)N1CC[C@H]1COc1cnccc1-c1[nH]c2cccnc2c1-c1ccccc1 (single isomer, unassigned) [Example 141] | 231 | 0.596 | 2.21 | –
10 | C=CS(=O)(=O)N1CC[C@@H]1COc1cnccc1-c1[nH]c2cccnc2c1-c1ccccc1 (single isomer, unassigned) [Example 142] | 16 | < 0.0725 | 0.262 | –
11 | C=CC(=O)N1CC[C@H]1COc1cnccc1-c1[nH]c2cccnc2c1-c1cccc(C(F)(F)F)c1 (single isomer, unassigned) [Example 143] | 3840 | 129 | 678 | –
12 | C=CS(=O)(=O)N1CC[C@H]1COc1cnccc1-c1[nH]c2cccnc2c1-c1cccc(C(F)(F)F)c1 (single isomer, unassigned) [Example 144] | 1520 | 5.12 | 19 | –
13 | C=CC(=O)N(C)C[C@H](C)Oc1cnccc1-c1[nH]c2cccnc2c1-c1ccccc1 (stereo in doubt) [Example 133, N-methyl-N-[2-{[4-(3-phenyl-1H-pyrrolo[3,2-b]pyridin-2-yl)pyridin-3-yl]oxy}propyl]prop-2-enamide] | 9000 | 3470 | 5590 | –
14 | C=CS(=O)(=O)N(C)C[C@H](C)Oc1cnccc1-c1[nH]c2cccnc2c1-c1ccccc1 (stereo in doubt) [Example 134, N-methyl-N—[-2-{[4-(3-phenyl-1H-pyrrolo[3,2-b]pyridin-2-yl)pyridin-3-yl]oxy}propyl]ethenesulfonamide] | 622 | 22 | 101 | –
15 | C=CC(=O)N(C)CCOc1cnccc1-c1[nH]c2cccnc2c1-c1ccc2cc[nH]c2c1 [Example 16, N-[2-({4-[3-(1H-indol-6-yl)-1H-pyrrolo[3,2-b]pyridin-2-yl]pyridin-3-yl}oxy)ethyl]-N-methylprop-2-enamide] | 584 | 7.65 | 32.3 | –
16 | C=CC(=O)N(C)CCOc1cnccc1-c1[nH]c2cccnc2c1-c1cc(Cl)ccc1F [Example 43, N-[2-({4-[3-(5-chloro-2-fluorophenyl)-1H-pyrrolo[3,2-b]pyridin-2-yl]pyridin-3-yl}oxy)ethyl]-N-methylprop-2-enamide] | 538 | 11.7 | 33.2 | –
17 | C=CC(=O)N(C)CCOc1cnccc1-c1[nH]c2cccnc2c1-c1ccc2ccsc2c1 [Example 44, N-[2-({4-[3-(1-benzothiophen-6-yl)-1H-pyrrolo[3,2-b]pyridin-2-yl]pyridin-3-yl}oxy)ethyl]-N-methylprop-2-enamide] | 999 | 21.1 | 64 | –
18 | C=CC(=O)N(C)CCOc1cnccc1-c1[nH]c2cccnc2c1-c1cccc(CC)c1 [Example 45, N-[2-({4-[3-(3-ethylphenyl)-1H-pyrrolo[3,2-b]pyridin-2-yl]pyridin-3-yl}oxy)ethyl]-N-methylprop-2-enamide] | 1280 | 24.6 | 76.3 | –
19 | C=CC(=O)N(C)CCOc1cnccc1-c1[nH]c2cccnc2c1-c1cc(F)ccc1F [Example 46, N-[2-({4-[3-(2,5-difluorophenyl)-1H-pyrrolo[3,2-b]pyridin-2-yl]pyridin-3-yl}oxy)ethyl]-N-methylprop-2-enamide] | 1150 | 27.3 | 60.5 | –
20 | C=CC(=O)N(C)CCOc1cnccc1-c1[nH]c2cccnc2c1-c1cc(C)ccc1F [Example 47, N-[2-({4-[3-(2-fluoro-5-methylphenyl)-1H-pyrrolo[3,2-b]pyridin-2-yl]pyridin-3-yl}oxy)ethyl]-N-methylprop-2-enamide] | 493 | 32.8 | 19.6 | –
21 | C=CC(=O)N(C)CCOc1cnccc1-c1[nH]c2cccnc2c1-c1cc(CC)ccc1F [Example 48, N-[2-({4-[3-(5-ethyl-2-fluorophenyl)-1H-pyrrolo[3,2-b]pyridin-2-yl]pyridin-3-yl}oxy)ethyl]-N-methylprop-2-enamide] | 962 | 36.8 | 109 | –
